According to ChEMBL document CHEMBL5625183, “Discovery of a novel dual-target inhibitor of CDK12 and PARP1 that induces synthetic lethality for treatment of triple-negative breast cancer” (Eur J Med Chem, 2023):
pIC50: −log10 of the molar value. Activity calls are given as the source filed them. The calls are words filed in the database; no cut-off is given here.

Legend:
MDA-MB-436 [1] = assay: Induction of cell cycle arrest in human MDA-MB-436 cells assessed as accumulation of cells at S phase at 10 uM measured after 24 hrs by PI staining based cytometry analysis (reference value: 25.43%); assay type: functional
[2] = MRT (0 to infinity) in Sprague-Dawley rat at 10 mg/kg, po measured upto 24 hrs by LC-MS/MS analysis; assay type: ADME, organism-based; conditions: in vivo
MDA-MB-468 [3] = assay: Induction of apoptosis in human MDA-MB-468 cells assessed as increase in […] at 10 uM incubated for 24 hrs by Annexin V/PI staining based flow cytometry analysis; assay type: functional, cell-based
MDA-MB-468 [4] = assay: Inhibition of cell migration in human MDA-MB-468 cells assessed as wound closure at 10 uM incubated for 24 hrs by wound healing assay; assay type: functional, cell-based
MDA-MB-468 [5] = assay: Induction of apoptosis in human MDA-MB-468 cells incubated for 24 hrs by Annexin V/PI staining based flow cytometry analysis; assay type: functional, cell-based; conditions: dose 5-20 µM
[6] = Toxicity in BALB/c mouse xenografted with human MDA-MB-231 cells assessed as morphological changes in heart at 20 to 80 mg/kg, ip administered once daily for 16 days by H and E staining based analysis; assay type: organism-based; conditions: in vivo, 384 h, dose 20-80 mg/kg, time 16 day
[7] = target: AP2-associated protein kinase 1 (Homo sapiens) (UniProt Q2M2I8); assay: Inhibition of AAK1 (unknown origin) at 1 uM relative to control
MDA-MB-231 [8] = assay: Induction of cell cycle arrest in human MDA-MB-231 cells assessed as accumulation of cells at G1 phase at 10 uM measured after 24 hrs by PI staining based cytometry analysis (reference value: 68.55%); assay type: functional
MDA-MB-468 [9] = assay: Induction of apoptosis in human MDA-MB-468 cells assessed as downregulation of Bcl-2 expression incubated for 24 hrs; assay type: functional, cell-based; conditions: dose 5-20 µM
MDA-MB-231 [10] = assay: Inhibition of cell migration in human MDA-MB-231 cells at 10 uM incubated for 24 hrs by transwell assay; assay type: functional, cell-based
MDA-MB-468 [11] = assay: Inhibition of cell migration in human MDA-MB-468 cells assessed as downregulation of MMP-2 level by measuring fluorescence intensity at 10 uM incubated for 24 hrs by confocal microscopic analysis; assay type: functional, cell-based
[12] = target: Transcription initiation factor TFIID subunit 1-like (Homo sapiens) (UniProt Q8IZX4); assay: Inhibition of TAF1L (unknown origin) at 1 uM relative to control
Sequence of Transcription initiation factor TFIID subunit 1-like (Homo sapiens) (Q8IZX4 whole entry): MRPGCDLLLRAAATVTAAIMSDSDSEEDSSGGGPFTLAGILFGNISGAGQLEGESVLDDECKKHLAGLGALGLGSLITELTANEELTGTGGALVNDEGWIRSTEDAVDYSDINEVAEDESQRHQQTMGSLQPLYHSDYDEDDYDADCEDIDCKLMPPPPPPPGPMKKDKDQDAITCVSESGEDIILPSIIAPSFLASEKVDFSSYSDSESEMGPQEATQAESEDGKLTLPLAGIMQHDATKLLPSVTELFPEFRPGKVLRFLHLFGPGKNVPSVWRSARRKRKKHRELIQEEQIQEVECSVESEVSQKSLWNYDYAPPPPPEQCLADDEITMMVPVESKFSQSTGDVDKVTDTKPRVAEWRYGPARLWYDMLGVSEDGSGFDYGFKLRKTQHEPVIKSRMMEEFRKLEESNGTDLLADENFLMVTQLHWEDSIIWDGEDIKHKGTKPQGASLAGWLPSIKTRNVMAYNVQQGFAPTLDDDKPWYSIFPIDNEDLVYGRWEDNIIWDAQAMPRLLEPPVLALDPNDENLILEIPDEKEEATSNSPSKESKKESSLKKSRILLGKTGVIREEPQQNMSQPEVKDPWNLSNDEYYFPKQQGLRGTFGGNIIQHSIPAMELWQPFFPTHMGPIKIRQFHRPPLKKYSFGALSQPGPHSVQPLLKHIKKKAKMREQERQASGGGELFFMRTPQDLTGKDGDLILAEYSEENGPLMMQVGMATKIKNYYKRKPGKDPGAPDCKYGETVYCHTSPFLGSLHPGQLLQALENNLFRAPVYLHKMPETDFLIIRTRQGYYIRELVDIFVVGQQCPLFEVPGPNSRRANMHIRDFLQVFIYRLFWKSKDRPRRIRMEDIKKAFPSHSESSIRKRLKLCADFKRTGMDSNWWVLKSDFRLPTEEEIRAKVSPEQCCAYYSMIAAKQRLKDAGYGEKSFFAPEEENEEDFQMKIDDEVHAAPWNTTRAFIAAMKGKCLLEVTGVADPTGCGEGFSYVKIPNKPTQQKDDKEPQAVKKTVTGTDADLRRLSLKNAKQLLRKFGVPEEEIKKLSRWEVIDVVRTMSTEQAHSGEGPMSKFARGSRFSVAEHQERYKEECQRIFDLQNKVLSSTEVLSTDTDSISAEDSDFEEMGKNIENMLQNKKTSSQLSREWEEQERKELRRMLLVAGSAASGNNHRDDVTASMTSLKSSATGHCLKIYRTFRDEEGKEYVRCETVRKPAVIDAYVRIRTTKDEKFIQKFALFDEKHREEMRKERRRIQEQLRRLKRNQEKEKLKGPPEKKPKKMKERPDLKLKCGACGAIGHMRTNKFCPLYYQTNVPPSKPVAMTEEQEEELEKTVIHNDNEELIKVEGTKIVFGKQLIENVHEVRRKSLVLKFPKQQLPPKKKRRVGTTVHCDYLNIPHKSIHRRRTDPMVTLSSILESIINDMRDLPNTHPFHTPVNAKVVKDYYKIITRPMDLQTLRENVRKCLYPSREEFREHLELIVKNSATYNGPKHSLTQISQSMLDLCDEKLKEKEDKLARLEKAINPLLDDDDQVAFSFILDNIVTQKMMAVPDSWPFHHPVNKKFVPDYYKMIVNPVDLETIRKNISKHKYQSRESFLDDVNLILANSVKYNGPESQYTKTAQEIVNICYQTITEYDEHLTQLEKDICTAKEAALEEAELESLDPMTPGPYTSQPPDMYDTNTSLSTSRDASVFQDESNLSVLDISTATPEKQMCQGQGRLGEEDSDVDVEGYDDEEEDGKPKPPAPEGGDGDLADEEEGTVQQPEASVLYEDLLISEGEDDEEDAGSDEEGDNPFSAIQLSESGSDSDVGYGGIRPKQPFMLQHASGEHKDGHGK

MDA-MB-468 [13] = assay: Inhibition of cell migration in human MDA-MB-468 cells at 10 uM incubated for 24 hrs by transwell assay; assay type: functional, cell-based
MDA-MB-231 [14] = assay: Induction of apoptosis in human MDA-MB-231 cells assessed as downregulation of Bcl-2 expression incubated for 24 hrs; assay type: functional, cell-based; conditions: dose 5-20 µM
MDA-MB-231 [15] = assay: Induction of cell cycle arrest in human MDA-MB-231 cells assessed as accumulation of cells at S phase at 5 uM measured after 24 hrs by PI staining based cytometry analysis (reference value: 23.01 %); assay type: functional
[16] = Volume of distribution at steady state in Sprague-Dawley rat at 1 mg/kg, iv measured upto 24 hrs by LC-MS/MS analysis; assay type: ADME, organism-based; conditions: in vivo, read-out: Vdss
MDA-MB-231 [17] = assay: Antiproliferative activity against human MDA-MB-231 cells transfected with wild type CDK12 and PARP1 G863A mutant incubated for 24 hrs by MTT assay; assay type: functional, cell-based
[18] = target: Poly [ADP-ribose] polymerase 1 (Homo sapiens, UniProt P09874); assay: Inhibition of PARP1 (unknown origin) incubated for 1 hr by ELISA analysis
Sequence of Poly [ADP-ribose] polymerase 1 (P09874 whole entry): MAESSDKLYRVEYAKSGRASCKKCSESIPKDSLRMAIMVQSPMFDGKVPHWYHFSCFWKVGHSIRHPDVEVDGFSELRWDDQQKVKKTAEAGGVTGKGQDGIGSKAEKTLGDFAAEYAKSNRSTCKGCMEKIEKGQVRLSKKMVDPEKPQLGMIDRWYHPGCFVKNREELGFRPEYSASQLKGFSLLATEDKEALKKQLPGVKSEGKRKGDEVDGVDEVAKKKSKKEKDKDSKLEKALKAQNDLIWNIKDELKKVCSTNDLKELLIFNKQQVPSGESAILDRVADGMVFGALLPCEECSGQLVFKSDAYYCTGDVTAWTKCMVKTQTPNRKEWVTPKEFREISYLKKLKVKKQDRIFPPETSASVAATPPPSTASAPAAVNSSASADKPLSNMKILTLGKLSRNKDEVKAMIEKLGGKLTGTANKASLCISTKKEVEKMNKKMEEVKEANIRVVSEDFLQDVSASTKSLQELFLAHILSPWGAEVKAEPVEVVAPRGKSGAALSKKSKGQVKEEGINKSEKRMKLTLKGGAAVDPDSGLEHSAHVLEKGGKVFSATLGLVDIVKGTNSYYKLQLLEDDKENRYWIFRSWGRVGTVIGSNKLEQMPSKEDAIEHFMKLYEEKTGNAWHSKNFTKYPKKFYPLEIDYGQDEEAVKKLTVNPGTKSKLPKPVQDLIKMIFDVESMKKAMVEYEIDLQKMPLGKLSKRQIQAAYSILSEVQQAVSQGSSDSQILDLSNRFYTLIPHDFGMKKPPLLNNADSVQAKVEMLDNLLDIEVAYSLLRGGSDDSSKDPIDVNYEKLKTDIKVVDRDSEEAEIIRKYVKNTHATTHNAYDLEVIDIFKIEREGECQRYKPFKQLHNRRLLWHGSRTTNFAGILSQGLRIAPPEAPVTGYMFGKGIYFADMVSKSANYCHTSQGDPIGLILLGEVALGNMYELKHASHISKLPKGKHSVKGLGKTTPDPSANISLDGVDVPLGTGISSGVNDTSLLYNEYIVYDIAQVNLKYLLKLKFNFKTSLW

MDA-MB-468 [19] = assay: Induction of […] in human MDA-MB-468 cells assessed as increase in gamma-H2AX foci formation at 10 uM incubated for 24 hrs by confocal laser scanning microscopic analysis; assay type: functional, cell-based
MDA-MB-231 [20] = assay: […] DNA repair in human MDA-MB-231 cells assessed as […] formation at 10 uM incubated for 24 hrs by confocal laser scanning microscopic analysis; assay type: functional, cell-based
MDA-MB-436 [21] = assay: Induction of cell cycle arrest in human MDA-MB-436 cells assessed as accumulation of cells at S phase at 5 uM measured after 24 hrs by PI staining based cytometry analysis (reference value: 25.43%); assay type: functional
MDA-MB-231 [22] = assay: Induction of apoptosis in human MDA-MB-231 cells assessed as increase in […] at 10 uM incubated for 24 hrs by Annexin V/PI staining based flow cytometry analysis; assay type: functional, cell-based
MDA-MB-231 [23] = assay: Inhibition of cell migration in human MDA-MB-231 cells assessed as wound closure at 10 uM incubated for 24 hrs by wound healing assay; assay type: functional, cell-based
[24] = Half life in Sprague-Dawley rat 10 mg/kg, po measured upto 24 hrs by LC-MS/MS analysis; assay type: ADME, organism-based; conditions: in vivo
Mus musculus [25] = assay: In-vivo induction of DNA damage in ip dosed BALB/c mouse assessed as downregulation of RAD51 level in tumor administered once daily for 16 days by Western blot analysis; assay type: functional, organism-based; conditions: dose 20-80 mg/kg, time 16.0 day
[26] = Toxicity in BALB/c mouse xenografted with human MDA-MB-231 cells assessed as morphological changes in kidney at 20 to 80 mg/kg, ip administered once daily for 16 days by H and E staining based analysis; assay type: organism-based; conditions: in vivo, 384 h, dose 20-80 mg/kg, time 16 day
Mus musculus [27] = assay: In-vivo inhibition of CDK12-PARP1 in BALB/c mouse assessed as downregulation of PAR expression in tumor at 20 to 80 mg/kg, ip administered once daily for 16 days by Western blot analysis; assay type: functional, organism-based; conditions: dose 20-80 mg/kg, time 16.0 day
MDA-MB-231 [28] = assay: Upregulation of gamma-H2AX expression in human MDA-MB-231 cells incubated for 24 hrs by Western blot analysis; assay type: functional, cell-based; conditions: dose <= 20.0 µM
[29] = Clearance in Sprague-Dawley rat at 1 mg/kg, iv measured upto 24 hrs by LC-MS/MS analysis; assay type: ADME, organism-based; conditions: in vivo
[30] = AUC (0 to infinity) in Sprague-Dawley rat at 10 mg/kg, po measured upto 24 hrs by LC-MS/MS analysis; assay type: ADME, organism-based; conditions: in vivo
[31] = target: Cyclin-dependent kinase 12 (Homo sapiens, UniProt Q9NYV4); assay: Inhibition of CDK12 (unknown origin) in presence of ATP by kinase-glo plus luminescent assay
Sequence of Cyclin-dependent kinase 12 (Q9NYV4 whole entry): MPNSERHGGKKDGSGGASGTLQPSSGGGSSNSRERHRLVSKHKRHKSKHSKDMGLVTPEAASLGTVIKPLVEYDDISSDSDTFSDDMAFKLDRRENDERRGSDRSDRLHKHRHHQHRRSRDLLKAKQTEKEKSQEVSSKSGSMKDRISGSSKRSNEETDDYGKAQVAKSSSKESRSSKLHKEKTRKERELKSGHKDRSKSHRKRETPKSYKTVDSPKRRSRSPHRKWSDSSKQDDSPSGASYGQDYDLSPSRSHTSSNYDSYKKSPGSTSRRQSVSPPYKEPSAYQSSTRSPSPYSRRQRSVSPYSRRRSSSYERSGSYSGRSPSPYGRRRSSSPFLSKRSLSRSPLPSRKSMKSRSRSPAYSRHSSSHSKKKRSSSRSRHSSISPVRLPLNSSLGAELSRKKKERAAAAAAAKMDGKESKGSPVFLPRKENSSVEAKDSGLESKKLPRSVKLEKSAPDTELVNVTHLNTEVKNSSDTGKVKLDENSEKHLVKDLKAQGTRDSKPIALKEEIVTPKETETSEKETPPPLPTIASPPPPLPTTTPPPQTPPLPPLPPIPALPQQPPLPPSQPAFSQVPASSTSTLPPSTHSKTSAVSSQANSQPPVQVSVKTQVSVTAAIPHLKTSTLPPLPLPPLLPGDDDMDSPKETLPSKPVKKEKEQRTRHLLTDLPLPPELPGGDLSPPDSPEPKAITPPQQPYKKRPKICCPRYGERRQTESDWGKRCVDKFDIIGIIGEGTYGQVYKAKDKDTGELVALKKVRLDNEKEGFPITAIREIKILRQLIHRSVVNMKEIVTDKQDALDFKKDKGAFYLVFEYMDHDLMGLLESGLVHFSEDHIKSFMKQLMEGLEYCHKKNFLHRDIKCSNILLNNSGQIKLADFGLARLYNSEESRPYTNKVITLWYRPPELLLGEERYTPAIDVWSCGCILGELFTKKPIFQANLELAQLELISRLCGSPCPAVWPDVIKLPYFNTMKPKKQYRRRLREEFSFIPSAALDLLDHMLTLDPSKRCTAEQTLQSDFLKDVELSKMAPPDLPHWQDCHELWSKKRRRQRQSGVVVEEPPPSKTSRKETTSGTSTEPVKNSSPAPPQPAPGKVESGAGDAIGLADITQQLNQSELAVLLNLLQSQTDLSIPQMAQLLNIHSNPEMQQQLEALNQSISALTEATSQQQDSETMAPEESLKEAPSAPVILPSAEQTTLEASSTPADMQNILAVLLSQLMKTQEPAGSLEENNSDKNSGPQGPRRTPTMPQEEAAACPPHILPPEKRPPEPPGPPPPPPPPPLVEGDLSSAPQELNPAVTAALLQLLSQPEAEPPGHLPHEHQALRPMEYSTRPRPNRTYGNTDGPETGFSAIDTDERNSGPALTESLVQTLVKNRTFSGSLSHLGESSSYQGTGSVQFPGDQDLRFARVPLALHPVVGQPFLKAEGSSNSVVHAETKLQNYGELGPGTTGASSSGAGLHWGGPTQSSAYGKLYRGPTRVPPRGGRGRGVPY

MDA-MB-436 [32] = assay: Induction of cell cycle arrest in human MDA-MB-436 cells assessed as accumulation of cells at G2 phase at 10 uM measured after 24 hrs by PI staining based cytometry analysis (reference value: 2.54%); assay type: functional
[33] = target: Cyclin-dependent kinase 1 (Homo sapiens, UniProt P06493); assay: Inhibition of CDK1 (unknown origin)
Sequence of Cyclin-dependent kinase 1 (P06493 whole entry): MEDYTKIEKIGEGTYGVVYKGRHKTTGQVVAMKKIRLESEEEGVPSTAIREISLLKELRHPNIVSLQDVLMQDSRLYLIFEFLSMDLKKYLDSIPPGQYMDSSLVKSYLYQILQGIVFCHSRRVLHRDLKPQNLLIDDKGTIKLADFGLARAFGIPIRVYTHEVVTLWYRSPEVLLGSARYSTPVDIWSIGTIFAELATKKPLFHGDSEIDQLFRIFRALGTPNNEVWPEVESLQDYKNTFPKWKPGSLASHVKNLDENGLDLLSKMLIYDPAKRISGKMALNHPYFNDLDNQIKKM

[34] = Metabolic stability in human liver microsome assessed as half life in presence of NADPH incubated upto 60 mins by LC-MS/MS analysis; assay type: ADME; conditions: liver microsomes
MDA-MB-231 [35] = assay: Induction of cell cycle arrest in human MDA-MB-231 cells assessed as accumulation of cells at G2 phase at 20 uM measured after 24 hrs by PI staining based cytometry analysis (reference value: 8.44 %); assay type: functional
Mus musculus [36] = assay: In-vivo inhibition of CDK12-PARP1 in BALB/c mouse assessed as downregulation of CTD at Ser2 residue expression in tumor at 20 to 80 mg/kg, ip administered once daily for 16 days by Western blot analysis; assay type: functional, organism-based; conditions: dose 20-80 mg/kg, time 16.0 day

NC(=O)c1cccc2[nH]c(NC(=O)c3cccc(C(=O)N4CCC(Nc5ncc(I)cn5)CC4)c3)nc12
Activity (MDA-MB-436 [1]): 25.71% | MRT inf [2]: 4.76 h | Activity (MDA-MB-468 [3]): Active | inhibition (MDA-MB-468 [4]): Active | Activity (MDA-MB-468 [5]): Dose-Dependent Effect | Activity [6]: Non-Toxic | inhibition [7]: > 60% | Activity (MDA-MB-231 [8]): 61.71% | Activity (MDA-MB-468 [9]): Dose-Dependent Effect | inhibition (MDA-MB-231 [10]): Active | inhibition (MDA-MB-468 [11]): Active | inhibition [12]: > 60% | inhibition (MDA-MB-468 [13]): Active | Activity (MDA-MB-231 [14]): Dose-Dependent Effect | Activity (MDA-MB-231 [15]): 19.81% | Vd [16]: 1.39 L/kg | Activity (MDA-MB-231 [17]): Active | pIC50 [18]: 7.47 | Activity (MDA-MB-468 [19]): Active | Activity (MDA-MB-231 [20]): Active | Activity (MDA-MB-436 [21]): 26.5% | Activity (MDA-MB-231 [22]): Active | inhibition (MDA-MB-231 [23]): Active | half-life [24]: 2.39 h | Activity (Mus musculus [25]): Dose-Dependent Effect | Activity [26]: Non-Toxic | inhibition (Mus musculus [27]): Active | Activity (MDA-MB-231 [28]): Dose-Dependent Effect | clearance [29]: 12.5 mL/min/kg | AUC(0-inf) [30]: 71.2 ng·h/mL | pIC50 [31]: 6.55 | Activity (MDA-MB-436 [32]): 7.35% | pIC50 [33]: 6.29 | half-life [34]: 3.51 h | Activity (MDA-MB-231 [35]): 23.42% | inhibition (Mus musculus [36]): Active
